Among the data in patent publication US11504368B2, “2,6-diamino-3,4-dihydropyrimidin-4-one derivatives and use thereof in therapy” (THOMAS HELLEDAYS STIFTELSE FÖR MEDICINSK FORSKNING, priority 2018, dated 2022) are EC50 and IC50 values, retold here.

For orientation: IC50 means the concentration needed to halve the response being measured. Lower therefore signals higher potency.

Each structure is given as a SMILES string.

In one experiment the test system is HL-60 cells. Kind of experiment: Cancer cell viability assay (HL-60, resazurin). As to conditions: Homo sapiens, 96 h, mean of at least 3 independent measurements, read-out: HL60 cell proliferation inhibition EC50. It counts as cell-based. The method, then:
HL-60 cells (human promyelocytic leukemia cells) were seeded in a 384-well plate at a density of 2,000 cells per well in 50 μL induction medium and treated with vehicle (DMSO) or an 11-point concentration range with 3-fold dilution in concentration of compound. Each assay point was run in duplicate. Wells without cells but with DMSO were used as negative controls. The cells were left to proliferate over a period of 96 h, in an incubator at 37° C. and 5% CO2, followed by an addition of 10 μL […] resazurin sodium salt (199303, Sigma-Aldrich) dissolved in DPBS (14190, Gibco). After 4 h of incubation at 37° C. and 5% CO2, the fluorescent signal was measured using an excitation wavelength of 544 nm and an emission wavelength of 595 nm in a Hidex Sense plate reader. Cell plates were incubated in boxes with damp paper tissues to avoid evaporation. All additions, except compound and DMSO, were done using the Multidrop Combi (Thermo Fisher Scientific). DMSO and compounds were pre-dispensed with an Echo 550 Liquid handler (Labcyte) in black, clear bottom, TC-treated and sterile 384-well plates (3764, Corning). Growth medium consisted of RPMI 1640 GlutaMAX (61870, Gibco), 10% (v/v) FBS (10500, Gibco), and 1% (v/v) P/S (15070, Gibco). Induction medium consisted of RPMI 1640 GlutaMAX (61870, Gibco), 5% (v/v) FBS (10500, Gibco), and 1% (v/v) P/S (15070, Gibco). EC50 values were determined by fitting a four parameter sigmoidal curve model using XLfit (IDBS). Reported EC50 values are the mean of at least 3 independent measurements.
A general note: Alamar Blue is a resazurin reagent that responds to reducing activity.

For a further experiment, the target named is MTHFD2 (Homo sapiens (Human), UniProt P13995). Kind of experiment: Inhibition of MTHFD2 (NAD(P)H-Glo luminescence). As to conditions: 3.4 nmol/L MTHFD2, 5 μmol/L folitixorin, 250 μmol/L NAD+; mean of at least 3 independent measurements. In kind it is biochemical. The method, then: DMSO was used as negative control. The serial dilution in DMSO, from compound DMSO stock solution, was created by dispensing from a 384-well low dead volume microplate (LP-0200, Labcyte) and a 384-well polypropylene microplate 2.0 (PP-0200, Labcyte). A total of 2.5 μL MTHFD2 was preincubated with compound or DMSO for 10 min. The enzymatic reaction was initiated by adding 2.5 μL folitixorin (F680350, Toronto Research Chemicals). For background control, 5 μL buffer was added to the well. […] The final concentrations of all reagents in a total assay volume of 5 μL per well were 50 mmol/L Tris-HCl at pH 8.0, 100 mmol/L NaCl, 5 mmol/L MgCl2, 25 mmol/L Na3PO4 at pH 8.0, 0.005% (v/v) Tween-20, and 2 mmol/L 2-mercaptoethanol. After 15 min reaction time, 5 μL NAD(P)H-Glo detection reagent (G9061 or G9062, Promega) was dispensed in all wells and the plate was incubated for 60 min. Luminescence was measured on a plate reader (Envision, PerkinElmer or Sense, Hidex). The light signal produced is proportional to the amount of NAD(P)H in the sample. IC50 values were determined by fitting a four parameter sigmoidal curve model using XLfit (IDBS). Reported IC50 values are the mean of at least 3 independent measurements.
Sequence of MTHFD2 (P13995 36-350): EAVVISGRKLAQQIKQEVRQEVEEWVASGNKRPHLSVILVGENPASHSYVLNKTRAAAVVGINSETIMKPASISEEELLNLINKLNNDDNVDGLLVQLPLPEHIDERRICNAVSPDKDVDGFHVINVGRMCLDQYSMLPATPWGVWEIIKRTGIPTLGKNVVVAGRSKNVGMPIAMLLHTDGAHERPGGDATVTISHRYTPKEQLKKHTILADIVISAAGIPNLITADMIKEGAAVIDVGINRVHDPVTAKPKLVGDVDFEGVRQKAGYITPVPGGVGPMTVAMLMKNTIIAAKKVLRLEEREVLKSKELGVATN

As to `CC(C)[C@H](NC(=O)c1ncc(NC(=O)Nc2c(N)nc(N)[nH]c2=O)cc1F)C(=O)O` [Example 31, (2S)-2-[(5-{[(2,4-diamino-6-oxo-1,6-dihydropyrimidin-5-yl)carbamoyl]amino}-3-fluoropyridin-2-yl)formamido]-3-methylbutanoic acid], the EC50 in the experiment on HL-60 cells is 20 nM. This compound also came in with an IC50 against MTHFD2 of 8 nM.

On to `Nc1nc(N)c(NC(=O)Nc2ccc(C(=O)N[C@@H](CCC(=O)N[C@H](CCC(=O)O)C(=O)O)C(=O)O)nc2)c(=O)[nH]1` [Example 25, (2R)-2-[(4S)-4-carboxy-4-[(5-{[(2,4-diamino-6-oxo-1,6-dihydropyrimidin-5-yl)carbamoyl]amino}pyridin-2-yl)formamido]butanamido]pentanedioic acid], for which the EC50 in the experiment with HL-60 cells was found to be 1940 nM. The IC50 against MTHFD2 turned out to be 30 nM.

As for `Nc1nc(N)c(NC(=O)Nc2ccc(C(=O)N[C@@H](CCc3nnn[nH]3)C(=O)O)nc2)c(=O)[nH]1` [Example 4, (2S)-2-[(5-{[(2,4-diamino-6-oxo-1,6-dihydropyrimidin-5-yl)carbamoyl]amino}pyridin-2-yl)formamido]-4-(1H-1,2,3,4-tetrazol-5-yl)butanoic acid], in the experiment on HL-60 cells, the EC50 was 24 nM. The compound further gave an IC50 against MTHFD2 of 12 nM.

`Nc1nc(N)c(NC(=O)Nc2ccc(C(=O)N[C@@H](CCC(=O)O)C(=O)O)nc2OC2CC2)c(=O)[nH]1` [Example 18, (2S)-2-[(6-cyclopropoxy-5-{[(2,4-diamino-6-oxo-1,6-dihydropyrimidin-5-yl)carbamoyl]amino}pyridin-2-yl)formamido]pentanedioic acid]: the EC50 in the experiment with HL-60 cells amounted to 45 nM. This compound also gave an IC50 at MTHFD2 of 3 nM.

`Nc1nc(N)c(CC(=O)Nc2cnc(C(=O)N[C@@H](CCC(=O)O)C(=O)O)c(Cl)c2)c(=O)[nH]1` [Example 19, (2S)-2-((3-chloro-5-[2-(2,4-diamino-6-oxo-1,6-dihydropyrimidin-5-yl)acetamido]pyridin-2-yl)formamido)pentanedioic acid]: in the experiment with HL-60 cells, the EC50 is 8 nM. At MTHFD2, this compound registered an IC50 of 72 nM.

On to `Nc1nc(N)c(CC(=O)Nc2ccc(C(=O)N[C@@H](CCC(=O)N[C@@H](CCC(=O)O)C(=O)O)C(=O)O)nc2)c(=O)[nH]1` [Example 28, (2S)-2-[(4S)-4-carboxy-4-({5-[2-(2,4-diamino-6-oxo-1,6-dihydropyrimidin-5-yl)acetamido]pyridin-2-yl}formamido)butanamido]pentanedioic acid], for which, in the experiment on HL-60 cells, the EC50 worked out at 22 nM. Also, the IC50 against MTHFD2 is 92 nM.

Consider `Nc1nc(N)c(NC(=O)Nc2ccc(C(=O)N[C@@H](CC(=O)O)C(=O)O)nc2)c(=O)[nH]1` [Example 22, (2S)-2-[(5-{[(2,4-diamino-6-oxo-1,6-dihydropyrimidin-5-yl)carbamoyl]amino}pyridin-2-yl)formamido]butanedioic acid], for which, in the experiment on HL-60 cells, the EC50 was found to be 12800 nM. This compound came in with an IC50 against MTHFD2 of 195 nM.

For `Nc1nc(N)c(NC(=O)Nc2ccc(C(=O)N[C@H](C(=O)O)c3ccccc3)nc2)c(=O)[nH]1` [Example 15, (2S)-2-[(5-{[(2,4-diamino-6-oxo-1,6-dihydropyrimidin-5-yl)carbamoyl]amino}pyridin-2-yl)formamido]-2-phenylacetic acid], the EC50 with HL-60 cells amounted to 470 nM. Also, the midpoint of inhibition against MTHFD2, the IC50, lay at 23 nM.

Turning to `Nc1nc(N)c(NC(=O)Nc2cnc(C(=O)N[C@@H](CCC(=O)O)C(=O)O)c(F)c2)c(=O)[nH]1` [Example 6, (2S)-2-[(5-{[(2,4-diamino-6-oxo-1,6-dihydropyrimidin-5-yl)carbamoyl]amino}-3-fluoropyridin-2-yl)formamido]pentanedioic acid], in the experiment on HL-60 cells, the EC50 was 100 nM. This compound also had an IC50 against MTHFD2 of 10 nM.

Take `Nc1nc(N)c(CC(=O)Nc2cnc(C(=O)N[C@@H](CCC(=O)O)C(=O)O)c(F)c2)c(=O)[nH]1` [Example 10, (2S)-2-((5-[2-(2,4-diamino-6-oxo-1,6-dihydropyrimidin-5-yl)acetamido]-3-fluoropyridin-2-yl)formamido)pentanedioic acid]: the EC50 with HL-60 cells came to 14 nM.

With `COc1nc(C(=O)N[C@@H](CCC(=O)O)C(=O)O)ccc1NC(=O)Cc1c(N)nc(N)[nH]c1=O` [Example 29, (2S)-2-({5-[2-(2,4-diamino-6-oxo-1,6-dihydropyrimidin-5-yl)acetamido]-6-methoxypyridin-2-yl}formamido)pentanedioic acid], the EC50 with HL-60 cells came to 1120 nM. Besides, at MTHFD2, the IC50 stood at 44 nM.

As to `Nc1nc(N)c(NC(=O)Nc2ccc(C(=O)N[C@@H](CCCC(=O)O)C(=O)O)nc2)c(=O)[nH]1` [Example 17, (2S)-2-[(5-{[(2,4-diamino-6-oxo-1,6-dihydropyrimidin-5-yl)carbamoyl]amino}pyridin-2-yl)formamido]hexanedioic acid], in the experiment on HL-60 cells, the EC50 worked out at 200 nM. The IC50 against MTHFD2 was 32 nM.

As to `Nc1nc(N)c(NC(=O)Nc2ccc(C(=O)N[C@@H](CCC(=O)NS(=O)(=O)c3ccccc3)C(=O)O)nc2)c(=O)[nH]1` [Example 16, (2S)-4-[(benzenesulfonyl)carbamoyl]-2-[(5-{[(2,4-diamino-6-oxo-1,6-dihydropyrimidin-5-yl)carbamoyl]amino}pyridin-2-yl)formamido]butanoic acid], the EC50 in the experiment on HL-60 cells was 197 nM. Besides, the IC50 at MTHFD2 amounted to 11 nM.

For `Nc1nc(N)c(NC(=O)Nc2cnc(C(=O)N[C@@H](Cc3ccccc3)C(=O)O)c(F)c2)c(=O)[nH]1` [Example 35, (2S)-2-[(5-{[(2,4-diamino-6-oxo-1,6-dihydropyrimidin-5-yl)carbamoyl]amino}-3-fluoropyridin-2-yl)formamido]-3-phenylpropanoic acid], the EC50 in the experiment on HL-60 cells came out at 20 nM. Moreover, on MTHFD2, the IC50 was 5 nM.

Consider `Cc1cc(NC(=O)Cc2c(N)nc(N)[nH]c2=O)cnc1C(=O)N[C@@H](CCC(=O)O)C(=O)O` [Example 20, (2S)-2-({5-[2-(2,4-diamino-6-oxo-1,6-dihydropyrimidin-5-yl)acetamido]-3-methylpyridin-2-yl}formamido)pentanedioic acid], for which the EC50 with HL-60 cells worked out at 34 nM. Also, 913 nM corresponded to half-maximal inhibition at MTHFD2 (IC50).

As to `C=Cc1nc(C(=O)N[C@@H](CCC(=O)O)C(=O)O)ccc1NC(=O)Cc1c(N)nc(N)[nH]c1=O` [Example 21, (2S)-2-((5-[2-(2,4-diamino-6-oxo-1,6-dihydropyrimidin-5-yl)acetamido]-6-ethenylpyridin-2-yl)formamido)pentanedioic acid], the EC50 in the experiment with HL-60 cells is 8620 nM. The same compound came in with an IC50 against MTHFD2 of 298 nM.

Regarding `Nc1nc(N)c(CC(=O)Nc2cnc(C(=O)N[C@@H](CCC(=O)O)C(=O)O)c(C(F)(F)F)c2)c(=O)[nH]1` [Example 30, (2S)-2-((5-[2-(2,4-diamino-6-oxo-1,6-dihydropyrimidin-5-yl)acetamido]-3-(trifluoromethyl)pyridin-2-yl)formamido)pentanedioic acid], in the experiment on HL-60 cells, the EC50 was 161 nM. In addition, half-maximal inhibition against MTHFD2 (IC50) required 1100 nM.

For the compound `CC(C)[C@H](NC(=O)c1ncc(NC(=O)Cc2c(N)nc(N)[nH]c2=O)cc1F)C(=O)O` [Example 34, (2S)-2-((5-[2-(2,4-diamino-6-oxo-1,6-dihydropyrimidin-5-yl)acetamido]-3-fluoropyridin-2-yl)formamido)-3-methylbutanoic acid], the EC50 in the experiment with HL-60 cells worked out at 177 nM. The IC50 at MTHFD2 was 60 nM.

Take `Nc1nc(N)c(NC(=O)Nc2ccc(C(=O)N[C@@H](Cc3ccccc3)C(=O)O)nc2)c(=O)[nH]1` [Example 2, (2S)-2-[(5-{[(2,4-diamino-6-oxo-1,6-dihydropyrimidin-5-yl)carbamoyl]amino}pyridin-2-yl)formamido]-3-phenylpropanoic acid; trifluoroacetic acid]: the EC50 in the experiment with HL-60 cells was 10 nM. The same compound displayed a half-inhibitory concentration (IC50) against MTHFD2 of 68 nM.

On to `Nc1nc(N)c(NC(=O)Nc2ccc(C(=O)N[C@@H](CCc3ccccc3)C(=O)O)nc2)c(=O)[nH]1` [Example 14, (2S)-2-[(5-{[(2,4-diamino-6-oxo-1,6-dihydropyrimidin-5-yl)carbamoyl]amino}pyridin-2-yl)formamido]-4-phenylbutanoic acid], for which the EC50 in the experiment on HL-60 cells amounted to 187 nM.
